Measured values taken from EP3271365B1, “BI[…] AGENTS CONTAINING THE CTI PHARMACOPHORE” (Pfizer Inc., priority 2015, dated 2016).

Columns and labels:
Assay in all cases: Cytotoxicity assay for payloads (MTS cell viability)
Format in all cases: cell-based
HL60 (leukemia) = conditions: Homo sapiens, HL-60, 96 h, HL60 cells, incubated four days, read-out: Free Payload Potencies HL60 (IC50)
Description: (§1) Cancer cell lines were obtained from ATCC (Manassas, VA). N87 (human gastric carcinoma derived from metastatic liver site). HL60 (leukemia) and MDA-MB-361 DYT2 (human breast carcinoma MDA-MB-361) were grown in RPMI 1640 media . All media were supplemented with 10% fetal bovine serum, 1% sodium pyruvate, and 1% L-glutamine (Invitrogen, Grand Island, NY). Human umbilical vein endothelial cells (HUVEC) were obtained from Lonza (Allendale, NJ) and maintained in EGM2 media supplemented with EGM-2 SingleQuots (Lonza # CC-4176). All cells were maintained in a humidified incubator (37°C, 5% CO2).
(§2) Cells in 100 µl medium were cultured in a 96-well plate. Cancer cell lines treated with the indicated compounds by adding 50 µl of 3X stocks in duplicate at 10 concentrations. Cells were incubated with compounds for four days, then 30 µl of CellTiter® 96 AQueous One MTS Solution (Promega Cat # G3582) was added to the cells, incubated 1.5 hr at 37°C, then absorbance measured at 490 nm on a Victor plate reader (Perkin Elmer, Waltham, MA). Relative cell viability was determined as a percentage of untreated control wells. IC50 values were calculated using four parameter logistic model #203 with XLfit v4.2 (IDBS, Guildford, Surry, UK).

[1] = test system: MDA-MB-361 DYT2 (human breast carcinoma MDA-MB-361); conditions: 96 h, MDA-MB-361 DYT2 cells, incubated four days, read-out: Free Payload Potencies DYT2 (IC50)
Description: as §1, §2

[2] = test system: N87 (human gastric carcinoma derived from metastatic liver site); conditions: 96 h, N87 cells, incubated four days, read-out: Free Payload Potencies N87 (IC50)
Description: as §1, §2

Structure (SMILES)	IC50 (HL60 (leukemia))	IC50 [1]	IC50 [2]
CC(=O)Oc1cc2c(c3c(C)csc13)[C@H](CCl)CN2C(=O)C12CC(C(=O)N3C[C@@H](CCl)c4c3cc(OC(C)=O)c3scc(C)c43)(C1)C2 [Compound 7, (8S,8'S)-(bicyclo[1.1.1]pentane-1,3-dicarbonyl)bis(8-(chloromethyl)-1-methyl-7,8-dihydro-6H-thieno[3,2-e]indole-6,4-diyl) diacetate]	< 0.005 nM	0.185 nM	0.022 nM
CC(=O)Oc1cc2c(c3c(C)csc13)[C@@H](CCl)CN2C(=O)CCCC(=O)N1C[C@H](CCl)c2c1cc(OC(C)=O)c1scc(C)c21 [Compound 25, (8R,8'R)-glutaroylbis(8-(chloromethyl)-1-methyl-7,8-dihydro-6H-thieno[3,2-e]indole-6,4-diyl) diacetate]	–	> 100 nM	41.6 nM
CC(=O)Oc1cc2c(c3sc(C)cc13)[C@H](CCl)CN2C(=O)C12CC(C(=O)N3C[C@@H](CCl)c4c3cc(OC(C)=O)c3cc(C)sc43)(C1)C2 [Compound 17, bicyclo[1.1.1]pentane-1,3-diylbis[carbonyl(8S)-8-(chloromethyl)-2-methyl-7,8-dihydro-6H-thieno[2,3-e]indole-6,4-diyl] diacetate]	0.084 nM	6.06 nM	1.3 nM
Cc1csc2c(O)cc3c(c12)[C@H](CCl)CN3C(=O)CCCC(=O)N1C[C@@H](CCl)c2c1cc(O[C@@H]1O[C@H](C(=O)O)[C@@H](O)[C@H](O)[C@H]1O)c1scc(C)c21 [Compound 57, (8S)-8-(chloromethyl)-6-{5-[(8S)-8-(chloromethyl)-4-hydroxy-1-methyl-7,8-dihydro-6H-thieno[3,2-e]indol-6-yl]-5-oxopentanoyl}-1-methyl-7,8-dihydro-6H-thieno[3,2-e]indol-4-yl beta-D-glucopyranosiduronic acid]	0.873 nM	37.6 nM	11 nM
Cc1csc2c(O)cc3c(c12)[C@H](CCl)CN3C(=O)CCCC(=O)N1C[C@@H](CCl)c2c1cc(OP(=O)(O)O)c1scc(C)c21 [Compound 61, (8S)-8-(chloromethyl)-6-{5-[(8S)-8-(chloromethyl)-4-hydroxy-1-methyl-7,8-dihydro-6H-thieno[3,2-e]indol-6-yl]-5-oxopentanoyl}-1-methyl-7,8-dihydro-6H-thieno[3,2-e]indol-4-yl dihydrogen phosphate]	0.806 nM	28.6 nM	13.6 nM
CC(=O)Oc1cc2c(c3c(C)csc13)[C@H](CCl)CN2C(=O)CCCC(=O)N1C[C@@H](CCl)c2c1cc(OC(C)=O)c1scc(C)c21 [Compound 24, (8S,8'S)-glutaroylbis(8-(chloromethyl)-1-methyl-7,8-dihydro-6H-thieno[3,2-e]indole-6,4-diyl) diacetate]	< 0.005 nM	0.171 nM	0.024 nM
CC(=O)Oc1cc2c(c3c(C)csc13)[C@@H](CCl)CN2C(=O)C12CC(C(=O)N3C[C@H](CCl)c4c3cc(OC(C)=O)c3scc(C)c43)(C1)C2 [Compound 12, (8R,8'R)-(bicyclo[1.1.1]pentane-1,3-dicarbonyl)bis(8-(chloromethyl)-1-methyl-7,8-dihydro-6H-thieno[3,2-e]indole-6,4-diyl) diacetate]	0.18 nM	5.08 nM	2.26 nM
